The target of this assay is hNMUR2 (Homo sapiens, UniProt Q9GZQ4). The assay is described as follows: 125I-hNMU-25 binding assay, human NMUR2 membranes. Also on record: expressed in transfected cells; host or cells: HEK-293 FLP-In cells (pcDNA5); HEK-293/aeq17 lines (pcDNA3.1) were also made; % inhibition of NMU-25 binding / % Activity: concentration or dose not given beside the values. As to the method:
Confluent cell monolayers expressing NMU receptors (the HEK cells described above) were harvested with phosphate buffered saline, collected by centrifugation, and resuspended in membrane buffer (50 mM TrisCl pH 7.4, 5 mM MgCl2, 1× Protease Inhibitor Cocktail, 10 μM phosphoramidon). After the cell pellet was homogenized, the solution was centrifuged at 18,000 rpm for 20 minutes at 4° C. The pellet was resuspended in membrane buffer to yield a final concentration of 0.5-5 μg/μL of membrane and stored at −80° C.
Experiments were performed in assay buffer (25 mM TrisCl, pH 7.4, 10 mM MgCl2, 2 mM EDTA, 1× Protease Inhibitor Cocktail, 100 μg/mL Bacitricin, 10 μM phosphoramidon) in 200 μL volumes in a 96-well format using 2-5 μg of membrane and 0.1 nM ^125I-hNMU-25 (about 12,000 cpm/well). For non-specific binding, 1 μM hNMU-25 was added. About 5 μL of peptides were added to measure antagonist activity, and the entire reaction was incubated at room temperature with shaking for 80 minutes. The reaction was terminated by rapid filtration through 0.3% poly-ethylenimine presoaked Millipore 96-well filter plates and washed with ice-cold buffer (5 mM TrisCl pH 7.4, 10 mM MgCl2, 2.5 mM EDTA, 0.04% Triton X-100). Plates were air-dried overnight at room temperature and recovered radioactivity was determined by standard scintillation counting. IC50 values were determined using GraphPad Prism software.
Concentration-response curves and radioligand-binding data were fitted using Prism (GraphPad Software). Results are summarized below in Tables 8 and 9.

Non-standard residues stand in square brackets, D forms with d. Residues, ends and D or L forms follow the SMILES beside them. No end group written: not given here. hArg = N=C(N)NCCCC[C@H](N)C(=O)O; dNle = CCCC[C@@H](N)C(=O)O Some results are limits rather than exact numbers.

Chain of hNMUR2 (Q9GZQ4 whole entry): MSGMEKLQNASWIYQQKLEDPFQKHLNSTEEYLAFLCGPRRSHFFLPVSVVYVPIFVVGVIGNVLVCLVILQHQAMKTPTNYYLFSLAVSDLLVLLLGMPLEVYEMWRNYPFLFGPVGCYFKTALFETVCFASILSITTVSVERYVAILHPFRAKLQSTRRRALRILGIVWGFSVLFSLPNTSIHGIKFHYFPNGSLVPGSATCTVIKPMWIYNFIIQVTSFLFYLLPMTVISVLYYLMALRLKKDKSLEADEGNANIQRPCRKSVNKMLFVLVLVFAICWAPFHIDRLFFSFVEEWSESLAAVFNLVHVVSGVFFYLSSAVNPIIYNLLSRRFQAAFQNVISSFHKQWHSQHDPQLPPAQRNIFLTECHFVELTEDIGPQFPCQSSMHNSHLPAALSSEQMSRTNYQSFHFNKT

For `CC(C)C[C@@H](NC(=O)[C@H](Cc1ccccc1)NC(=O)[C@@H](N)Cc1ccc(O)cc1)C(=O)N[C@@H](Cc1c[nH]c2ccccc12)C(=O)N[C@@H](CCCNC(=N)N)C(=O)N1CCC[C@H]1C(=O)N[C@@H](CCCNC(=N)N)C(=O)N[C@@H](CC(N)=O)C(N)=O` [Agonist B, YF-(D-L)-WRPRN-CONH2] (H-YF[dL]WRPRN-NH2), where the note is “Table 8, HEK-hR2, binding”, the “% Activity” value turned out to be 35% and the IC50 – broadly, the midpoint of a concentration-inhibition curve – is over 1000 nM.

`C[C@@H](NC(=O)[C@H](Cc1ccccc1)NC(=O)[C@@H](N)Cc1ccc(O)cc1)C(=O)N[C@@H](Cc1c[nH]c2ccccc12)C(=O)N[C@@H](CCCNC(=N)N)C(=O)N1CCC[C@H]1C(=O)N[C@@H](CCCNC(=N)N)C(=O)N[C@@H](CC(N)=O)C(N)=O` [Agonist D, YF-(D-A)-WRPRN-CONH2] (H-YF[dA]WRPRN-NH2; N-terminus assumed): under “Table 8, HEK-hR2, binding”, the “% Activity” value came out at 0% and the IC50 is over 1000 nM.

As for `CC(=O)N[C@@H](Cc1ccccc1)C(=O)N[C@H](CC(C)C)C(=O)N[C@@H](Cc1c[nH]c2ccccc12)C(=O)N[C@@H](CCCNC(=N)N)C(=O)N1CCC[C@H]1C(=O)N[C@@H](CCCNC(=N)N)C(=O)N[C@@H](CC(N)=O)C(N)=O` [Agonist E, Ac-F-(D-L)-WRPRN-CONH2] (Ac-F[dL]WRPRN-NH2), for the setting “Table 8, HEK-hR2, binding”, the “% Activity” value is recorded as 5% and the IC50 is over 1000 nM.

Take `CC(C)C[C@H](NC(=O)[C@H](Cc1c[nH]c2ccccc12)NC(=O)[C@@H](N)Cc1ccccc1)C(=O)N[C@@H](Cc1ccccc1)C(=O)N[C@@H](CCCNC(=N)N)C(=O)N1CCC[C@H]1C(=O)N[C@@H](CCCCNC(=N)N)C(=O)N[C@@H](CC(N)=O)C(N)=O` [Agonist I, FWLFRP-(Harg)-N-CONH2] (H-FWLFRP[hArg]N-NH2): the “% Activity” value (Table 9, HEK-hR2, binding) amounted to 90%.

With `CC(C)C[C@H](NC(=O)[C@H](Cc1c[nH]c2ccccc12)NC(=O)[C@@H](N)Cc1ccccc1)C(=O)N[C@@H](Cc1ccccc1)C(=O)N[C@@H](CCCNC(=N)N)C(=O)N[C@@H](C)C(=O)N[C@@H](CCCCNC(=N)N)C(=O)N[C@@H](CC(N)=O)C(N)=O` [Agonist J, FWLFRA-(Harg)-N-CONH2] (H-FWLFRA[hArg]N-NH2), for the setting “Table 9, HEK-hR2, binding”, the “% Activity” value stood at 63% and the IC50 was determined as 150 nM.

Turning to `CCCC[C@@H](NC(=O)[C@H](CCCNC(=N)N)NC(=O)[C@H](C)NC(=O)[C@H](CCCNC(=N)N)NC(=O)[C@H](Cc1ccccc1)NC(=O)[C@H](CC(C)C)NC(=O)[C@H](Cc1ccccc1)NC(=O)[C@@H](N)Cc1c[nH]c2ccccc12)C(N)=O` [Agonist K, WFLFRAR-(D-Nle)-CONH2] (H-WFLFRAR[dNle]-NH2), where the note is “Table 9, HEK-hR2, binding”, the “% Activity” value was found to be 100%.

Consider `CC(C)C[C@H](NC(=O)[C@H](Cc1c[nH]c2ccccc12)NC(=O)[C@H](Cc1ccccc1)NC(=O)CNC(=O)[C@H](CCCNC(=N)N)NC(=O)[C@H](CO)NC(=O)[C@H](CCC(N)=O)NC(=O)[C@H](CO)NC(=O)[C@H](C)NC(=O)[C@H](Cc1ccccc1)NC(=O)[C@@H]1CCCN1C(=O)[C@H](CO)NC(=O)[C@H](CCC(N)=O)NC(=O)[C@H](Cc1ccccc1)NC(=O)[C@H](CCC(=O)O)NC(=O)[C@H](CCC(=O)O)NC(=O)[C@H](CC(=O)O)NC(=O)[C@@H](NC(=O)[C@H](CCCNC(=N)N)NC(=O)[C@@H](N)Cc1ccccc1)C(C)C)C(=O)N[C@@H](Cc1ccccc1)C(=O)N[C@@H](CCCNC(=N)N)C(=O)N1CCC[C@H]1C(=O)N[C@@H](CCCCNC(=N)N)C(=O)N[C@@H](CC(N)=O)C(N)=O` [Agonist O] (H-FRVDEEFQSPFASQSRGFWLFRP[hArg]N-NH2; N-terminus assumed), for which, for the setting “Table 9, HEK-hR2, binding”, the “% Activity” value turned out to be 92% and the IC50 came to 3 nM.

For the molecule `CC(C)C[C@H](NC(=O)[C@H](Cc1c[nH]c2ccccc12)NC(=O)[C@H](Cc1ccccc1)NC(=O)CNC(=O)[C@H](CCCNC(=N)N)NC(=O)[C@H](CO)NC(=O)[C@H](CCC(N)=O)NC(=O)[C@H](CO)NC(=O)[C@H](C)NC(=O)[C@H](Cc1ccccc1)NC(=O)[C@@H]1CCCN1C(=O)[C@H](CO)NC(=O)[C@H](CCC(N)=O)NC(=O)[C@H](Cc1ccccc1)NC(=O)[C@H](CCC(=O)O)NC(=O)[C@H](CCC(=O)O)NC(=O)[C@H](CC(=O)O)NC(=O)[C@@H](NC(=O)[C@H](CCCNC(=N)N)NC(=O)[C@@H](N)Cc1ccccc1)C(C)C)C(=O)N[C@@H](Cc1ccccc1)C(=O)N[C@@H](CCCNC(=N)N)C(=O)N[C@@H](C)C(=O)N[C@@H](CCCCNC(=N)N)C(=O)N[C@@H](CC(N)=O)C(N)=O` [Agonist P] (H-FRVDEEFQSPFASQSRGFWLFRA[hArg]N-NH2; N-terminus assumed), for the setting “Table 9, HEK-hR2, binding”, the “% Activity” value is reported as 81% and the IC50 was found to be 150 nM.

For the molecule `CCCC[C@@H](NC(=O)[C@H](CCCNC(=N)N)NC(=O)[C@@H]1CCCN1C(=O)[C@H](CCCNC(=N)N)NC(=O)[C@H](Cc1ccccc1)NC(=O)[C@H](CC(C)C)NC(=O)[C@H](Cc1c[nH]c2ccccc12)NC(=O)[C@H](Cc1ccccc1)NC(=O)CNC(=O)[C@H](CCCNC(=N)N)NC(=O)[C@H](CO)NC(=O)[C@H](CCC(N)=O)NC(=O)[C@H](CO)NC(=O)[C@H](C)NC(=O)[C@H](Cc1ccccc1)NC(=O)[C@@H]1CCCN1C(=O)[C@H](CO)NC(=O)[C@H](CCC(N)=O)NC(=O)[C@H](Cc1ccccc1)NC(=O)[C@H](CCC(=O)O)NC(=O)[C@H](CCC(=O)O)NC(=O)[C@H](CC(=O)O)NC(=O)[C@@H](NC(=O)[C@H](CCCNC(=N)N)NC(=O)[C@@H](N)Cc1ccccc1)C(C)C)C(N)=O` [Agonist Q] (H-FRVDEEFQSPFASQSRGFWLFRPR[dNle]-NH2), the “% Activity” value (Table 9, HEK-hR2, binding) worked out at 89%.

On to `CC(C)C[C@H](NC(=O)[C@H](Cc1ccccc1)NC(=O)[C@@H](N)Cc1ccc(O)cc1)C(=O)N[C@@H](Cc1ccccc1)C(=O)N[C@@H](CCCNC(=N)N)C(=O)N1CCC[C@H]1C(=O)N[C@@H](CCCNC(=N)N)C(=O)N[C@@H](CC(N)=O)C(N)=O` [NMU-8, reference compound], for which, under “Table 9, HEK-hR2, binding”, the “% Activity” value is 100%.

Take “Ac-FFRPRN-NH2 [Agonist F, Ac-FFRPRN-CONH2]”: under “Table 8, HEK-hR2, binding”, the “% Activity” value turned out to be 12% and the 50% inhibitory concentration (IC50) was over 1000 nM.

Consider FALFRPRN-NH2 [Agonist N], for which, under “Table 9, HEK-hR2, binding”, the “% Activity” value is 100%.

Consider “H-FRVDEEFQSPFASQSRGYFWRPRN-NH2 [Agonist G]”, for which the “% Activity” value (Table 8, HEK-hR2, binding) is reported as 33%.

H-FWLFRARN-NH2 [Agonist L]: under “Table 9, HEK-hR2, binding”, the “% Activity” value is listed as 100%.

H-YFGWRPRN-NH2 [Agonist C]: under “Table 8, HEK-hR2, binding”, the “% Activity” value turned out to be 0% and the half-maximal inhibitory concentration (IC50) was over 1000 nM.

Consider WALFRARN-NH2 [Agonist M], for which, under “Table 9, HEK-hR2, binding”, the “% Activity” value was found to be 71% and the IC50 was found to be 180 nM.

With YFWRPRN-NH2 [Agonist A, YFWRPRN-CONH2], where the note is “Table 8, HEK-hR2, binding”, the “% Activity” value is reported as 0% and the IC50 was over 1000 nM.

These data come from patent publication US20100075907A1, “NEUROMEDIN U RECEPTOR AGONISTS AND USES THEREOF” (priority 2006, published 2010).
